Experimental data as given in PubChem BioAssay (NCI).
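1) Cells in 96-well plates. 2) Compound, 48 h, 5 concentrations. 3) Linear interpolation between surrounding doses. 4) Unreached endpoint = highest concentration. TGI denotes the concentration required for complete inhibition of growth.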

What was measured:
Assay in all cases: inhibition of tumour cell growth, NCI panel, 48 h
T-47D breast = system: T-47D breast
BT-549 breast = system: BT-549 breast
RXF 393 renal = system: RXF 393 renal
PC-3 prostate = system: PC-3 prostate
UACC-257 melanoma = system: UACC-257 melanoma
A498 renal = system: A498 renal
M14 melanoma = system: M14 melanoma
CCRF-CEM leukemia = system: CCRF-CEM leukemia
NCI-H23 lung = system: NCI-H23 lung
KM12 colon = system: KM12 colon
RPMI-8226 leukemia = system: RPMI-8226 leukemia
HT29 colon = system: HT29 colon
DU-145 prostate = system: DU-145 prostate
OVCAR-4 ovarian = system: OVCAR-4 ovarian
SR leukemia = system: SR leukemia
SNB-75 CNS = system: SNB-75 CNS
OVCAR-5 ovarian = system: OVCAR-5 ovarian
SW-620 colon = system: SW-620 colon
SF-268 CNS = system: SF-268 CNS
HOP-92 NSCLC = system: HOP-92 NSCLC
MDA-N = system: MDA-N
TK-10 renal = system: TK-10 renal
NCI-H460 lung = system: NCI-H460 lung
SF-539 CNS = system: SF-539 CNS
U251 CNS = system: U251 CNS
HCT-116 colon = system: HCT-116 colon
COLO 205 colon = system: COLO 205 colon
MALME-3M melanoma = system: MALME-3M melanoma
SK-MEL-2 melanoma = system: SK-MEL-2 melanoma
HCT-15 colon = system: HCT-15 colon
SNB-19 CNS = system: SNB-19 CNS
CAKI-1 renal = system: CAKI-1 renal
786-0 renal = system: 786-0 renal
IGROV1 ovarian = system: IGROV1 ovarian
SK-MEL-5 melanoma = system: SK-MEL-5 melanoma
HL-60(TB) leukemia = system: HL-60(TB) leukemia
HS 578T breast = system: HS 578T breast
A549 NSCLC = system: A549 NSCLC
SK-OV-3 ovarian = system: SK-OV-3 ovarian
HOP-62 NSCLC = system: HOP-62 NSCLC
MDA-MB-231 breast = system: MDA-MB-231 breast
NCI-H522 lung = system: NCI-H522 lung
LOX IMVI melanoma = system: LOX IMVI melanoma
OVCAR-3 ovarian = system: OVCAR-3 ovarian
SK-MEL-28 melanoma = system: SK-MEL-28 melanoma
NCI-H226 lung = system: NCI-H226 lung
SN12C renal = system: SN12C renal
UO-31 renal = system: UO-31 renal
NCI/ADR-RES ovarian = system: NCI/ADR-RES ovarian
MOLT-4 leukemia = system: MOLT-4 leukemia
SF-295 CNS = system: SF-295 CNS
MDA-MB-435 = system: MDA-MB-435
ACHN renal = system: ACHN renal
K-562 leukemia = system: K-562 leukemia
OVCAR-8 ovarian = system: OVCAR-8 ovarian
EKVX NSCLC = system: EKVX NSCLC
MCF7 breast = system: MCF7 breast
UACC-62 melanoma = system: UACC-62 melanoma
HCC-2998 colon = system: HCC-2998 colon

## Cc1cc(C)c(-n2c(C)c(C)c(C#N)c2N)c(C)c1
T-47D breast
  TGI: > 100 µM
BT-549 breast
  TGI: > 100 µM
RXF 393 renal
  TGI: 94.8 µM
PC-3 prostate
  TGI: 89 µM
UACC-257 melanoma
  TGI: 60.8 µM
A498 renal
  TGI: 97.1 µM
M14 melanoma
  TGI: > 100 µM
CCRF-CEM leukemia
  TGI: 45.5 µM
NCI-H23 lung
  TGI: > 100 µM
KM12 colon
  TGI: > 100 µM
RPMI-8226 leukemia
  TGI: 54.6 µM
HT29 colon
  TGI: > 100 µM
DU-145 prostate
  TGI: > 100 µM
OVCAR-4 ovarian
  TGI: > 100 µM
SR leukemia
  TGI: 38.4 µM
SNB-75 CNS
  TGI: > 100 µM
OVCAR-5 ovarian
  TGI: > 100 µM
SW-620 colon
  TGI: > 100 µM
SF-268 CNS
  TGI: > 100 µM
HOP-92 NSCLC
  TGI: 74.4 µM
MDA-N
  TGI: > 100 µM
TK-10 renal
  TGI: > 100 µM
NCI-H460 lung
  TGI: 78.6 µM
SF-539 CNS
  TGI: 69.8 µM
U251 CNS
  TGI: 49.7 µM
HCT-116 colon
  TGI: 48.9 µM
COLO 205 colon
  TGI: 38.9 µM
MALME-3M melanoma
  TGI: 87.8 µM
SK-MEL-2 melanoma
  TGI: 51.7 µM
HCT-15 colon
  TGI: > 100 µM
SNB-19 CNS
  TGI: > 100 µM
CAKI-1 renal
  TGI: > 100 µM
786-0 renal
  TGI: > 100 µM
IGROV1 ovarian
  TGI: > 100 µM
SK-MEL-5 melanoma
  TGI: 37.2 µM
HL-60(TB) leukemia
  TGI: 37 µM
HS 578T breast
  TGI: > 100 µM
A549 NSCLC
  TGI: > 100 µM
SK-OV-3 ovarian
  TGI: > 100 µM
HOP-62 NSCLC
  TGI: > 100 µM
MDA-MB-231 breast
  TGI: > 100 µM
NCI-H522 lung
  TGI: 57.4 µM
LOX IMVI melanoma
  TGI: 40.8 µM
OVCAR-3 ovarian
  TGI: > 100 µM
SK-MEL-28 melanoma
  TGI: > 100 µM
NCI-H226 lung
  TGI: > 100 µM
SN12C renal
  TGI: > 100 µM
UO-31 renal
  TGI: > 100 µM
NCI/ADR-RES ovarian
  TGI: > 100 µM
MOLT-4 leukemia
  TGI: 68.5 µM
SF-295 CNS
  TGI: > 100 µM
MDA-MB-435
  TGI: > 100 µM
ACHN renal
  TGI: 78.9 µM
K-562 leukemia
  TGI: 78.5 µM
OVCAR-8 ovarian
  TGI: > 100 µM
EKVX NSCLC
  TGI: 87.6 µM

## Cc1nnc(N2C(=O)C(=Cc3ccc(Cl)cc3)N=C2c2ccc(Cl)cc2)nc1/C=C\c1ccc(N(C)C)cc1
T-47D breast
  TGI: > 100 µM
BT-549 breast
  TGI: > 100 µM
RXF 393 renal
  TGI: > 100 µM
PC-3 prostate
  TGI: > 100 µM
UACC-257 melanoma
  TGI: > 100 µM
A498 renal
  TGI: > 100 µM
M14 melanoma
  TGI: > 100 µM
CCRF-CEM leukemia
  TGI: > 100 µM
NCI-H23 lung
  TGI: > 100 µM
KM12 colon
  TGI: > 100 µM
RPMI-8226 leukemia
  TGI: > 100 µM
HT29 colon
  TGI: > 100 µM
MCF7 breast
  TGI: > 100 µM
DU-145 prostate
  TGI: > 100 µM
OVCAR-4 ovarian
  TGI: > 100 µM
SNB-75 CNS
  TGI: > 100 µM
OVCAR-5 ovarian
  TGI: > 100 µM
SW-620 colon
  TGI: > 100 µM
SF-268 CNS
  TGI: > 100 µM
HOP-92 NSCLC
  TGI: > 100 µM
MDA-N
  TGI: > 100 µM
TK-10 renal
  TGI: > 100 µM
NCI-H460 lung
  TGI: > 100 µM
U251 CNS
  TGI: > 100 µM
UACC-62 melanoma
  TGI: > 100 µM
HCT-116 colon
  TGI: > 100 µM
COLO 205 colon
  TGI: > 100 µM
MALME-3M melanoma
  TGI: > 100 µM
SK-MEL-2 melanoma
  TGI: > 100 µM
HCT-15 colon
  TGI: > 100 µM
SNB-19 CNS
  TGI: > 100 µM
CAKI-1 renal
  TGI: > 100 µM
786-0 renal
  TGI: > 100 µM
IGROV1 ovarian
  TGI: > 100 µM
SK-MEL-5 melanoma
  TGI: > 100 µM
HL-60(TB) leukemia
  TGI: > 100 µM
HS 578T breast
  TGI: > 100 µM
A549 NSCLC
  TGI: > 100 µM
SK-OV-3 ovarian
  TGI: > 100 µM
HOP-62 NSCLC
  TGI: > 100 µM
MDA-MB-231 breast
  TGI: > 100 µM
NCI-H522 lung
  TGI: > 100 µM
LOX IMVI melanoma
  TGI: > 100 µM
OVCAR-3 ovarian
  TGI: > 100 µM
SK-MEL-28 melanoma
  TGI: > 100 µM
HCC-2998 colon
  TGI: > 100 µM
NCI-H226 lung
  TGI: > 100 µM
SN12C renal
  TGI: > 100 µM
UO-31 renal
  TGI: > 100 µM
NCI/ADR-RES ovarian
  TGI: > 100 µM
MOLT-4 leukemia
  TGI: > 100 µM
SF-295 CNS
  TGI: > 100 µM
MDA-MB-435
  TGI: > 100 µM
ACHN renal
  TGI: > 100 µM
K-562 leukemia
  TGI: > 100 µM
OVCAR-8 ovarian
  TGI: > 100 µM
EKVX NSCLC
  TGI: > 100 µM

## O=S(=O)(Nc1nc2ccccc2nc1Nc1cccc2ccccc12)c1ccccc1
T-47D breast
  TGI: > 100 µM
BT-549 breast
  TGI: > 100 µM
RXF 393 renal
  TGI: 78.9 µM
PC-3 prostate
  TGI: > 100 µM
UACC-257 melanoma
  TGI: > 100 µM
M14 melanoma
  TGI: > 100 µM
NCI-H23 lung
  TGI: 64.4 µM
KM12 colon
  TGI: > 100 µM
RPMI-8226 leukemia
  TGI: > 100 µM
MCF7 breast
  TGI: > 100 µM
DU-145 prostate
  TGI: > 100 µM
OVCAR-4 ovarian
  TGI: 5.99 µM
SR leukemia
  TGI: > 100 µM
SNB-75 CNS
  TGI: 57.6 µM
OVCAR-5 ovarian
  TGI: > 100 µM
SW-620 colon
  TGI: > 100 µM
SF-268 CNS
  TGI: > 100 µM
HOP-92 NSCLC
  TGI: 16.5 µM
MDA-N
  TGI: > 100 µM
TK-10 renal
  TGI: 28.9 µM
NCI-H460 lung
  TGI: > 100 µM
SF-539 CNS
  TGI: > 100 µM
U251 CNS
  TGI: 30 µM
UACC-62 melanoma
  TGI: > 100 µM
HCT-116 colon
  TGI: > 100 µM
MALME-3M melanoma
  TGI: > 100 µM
SK-MEL-2 melanoma
  TGI: > 100 µM
SNB-19 CNS
  TGI: 61.2 µM
CAKI-1 renal
  TGI: > 100 µM
786-0 renal
  TGI: 68.4 µM
IGROV1 ovarian
  TGI: > 100 µM
SK-MEL-5 melanoma
  TGI: > 100 µM
HS 578T breast
  TGI: 95.2 µM
A549 NSCLC
  TGI: > 100 µM
SK-OV-3 ovarian
  TGI: > 100 µM
HOP-62 NSCLC
  TGI: 33 µM
MDA-MB-231 breast
  TGI: 43.9 µM
LOX IMVI melanoma
  TGI: > 100 µM
OVCAR-3 ovarian
  TGI: > 100 µM
SK-MEL-28 melanoma
  TGI: > 100 µM
HCC-2998 colon
  TGI: > 100 µM
NCI-H226 lung
  TGI: > 100 µM
SN12C renal
  TGI: > 100 µM
UO-31 renal
  TGI: > 100 µM
NCI/ADR-RES ovarian
  TGI: > 100 µM
SF-295 CNS
  TGI: > 100 µM
MDA-MB-435
  TGI: > 100 µM
ACHN renal
  TGI: > 100 µM
K-562 leukemia
  TGI: > 100 µM
OVCAR-8 ovarian
  TGI: > 100 µM
EKVX NSCLC
  TGI: > 100 µM
